# Results taken from PubChem BioAssay AID1963854 (Molecular Pharmacology Branch, DTP, NCI, 2024).
# System: 186277-243-T-J2-PDC complex spheroid viability
# Test: Anticancer human tumor 186277-243-T-J2-PDC patient-derived colon adenocarcinoma cell line growth inhibition [POLQ]
# Conditions: for IC50: curve of first compound; for viability, T/C: stronger effect = lower value
# Procedure, shortened: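 Complex spheroid viability model combining PDC tumour cells with endothelial (HUVEC) and MSC stromal cells. Novobiocin, ART-558 or RP6685 were tested singly and in combination with standard and investigational anticancer drugs. Each was titrated in half-log steps from near clinical Cmax, or from 10 microM where Cmax was unknown.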
# [1] = second compound 0.0316 µM, first compound 0.00316 µM
# [2] = second compound 0.0316 µM, first compound 0.01 µM
# [3] = second compound 0.0316 µM, first compound 0.0316 µM
# [4] = second compound 0.0316 µM, first compound 0.1 µM
# [5] = second compound 0.1 µM, first compound 0.00316 µM
# [6] = second compound 0.1 µM, first compound 0.01 µM
# [7] = second compound 0.1 µM, first compound 0.0316 µM
# [8] = second compound 0.1 µM, first compound 0.1 µM
# [9] = second compound 0.316 µM, first compound 0.00316 µM
# [10] = second compound 0.316 µM, first compound 0.01 µM
# [11] = second compound 0.316 µM, first compound 0.0316 µM
# [12] = second compound 0.316 µM, first compound 0.1 µM
# [13] = second compound 1 µM, first compound 0.00316 µM
# [14] = second compound 1 µM, first compound 0.01 µM
# [15] = second compound 1 µM, first compound 0.0316 µM
# [16] = second compound 1 µM, first compound 0.1 µM
# [17] = second compound 3.16 µM, first compound 0.00316 µM
# [18] = second compound 3.16 µM, first compound 0.01 µM
# [19] = second compound 3.16 µM, first compound 0.0316 µM
# [20] = second compound 3.16 µM, first compound 0.1 µM
# [21] = second compound 10 µM, first compound 0.00316 µM
# [22] = second compound 10 µM, first compound 0.01 µM
# [23] = second compound 10 µM, first compound 0.0316 µM
# [24] = second compound 10 µM, first compound 0.1 µM
# [25] = second compound 0.0316 µM, first compound 0.000316 µM
# [26] = second compound 0.0316 µM, first compound 0.001 µM
# [27] = second compound 0.1 µM, first compound 0.000316 µM
# [28] = second compound 0.1 µM, first compound 0.001 µM
# [29] = second compound 0.316 µM, first compound 0.000316 µM
# [30] = second compound 0.316 µM, first compound 0.001 µM
# [31] = second compound 1 µM, first compound 0.000316 µM
# [32] = second compound 1 µM, first compound 0.001 µM
# [33] = second compound 3.16 µM, first compound 0.000316 µM
# [34] = second compound 3.16 µM, first compound 0.001 µM
# [35] = second compound 10 µM, first compound 0.000316 µM
# [36] = second compound 10 µM, first compound 0.001 µM
# 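Note: spheroids exposed to compounds for seven days.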
# 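Throughout, for viability, T/C: 100% = DMSO vehicle control viability.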
smiles,measurement,setting,value
COc1cccc(OCCCN)c1-c1cc(Nc2cnc(C#N)cn2)n[nH]1 + Cc1cccc(N(C)C(=O)C2C(O)CCN2c2nc(C)cc(C(F)(F)F)c2C#N)c1,IC50,second compound 0.0316 µM,< 3.16 nM
same,IC50,second compound 0.1 µM,< 3.16 nM
same,IC50,second compound 0.316 µM,< 3.16 nM
same,IC50,second compound 1 µM,< 3.16 nM
same,IC50,second compound 3.16 µM,< 3.16 nM
same,IC50,second compound 10 µM,< 3.16 nM
same,"viability, T/C",[1],38.4%
same,"viability, T/C",[2],14.9%
same,"viability, T/C",[3],11.1%
same,"viability, T/C",[4],10%
same,"viability, T/C","second compound 0.0316 µM, first compound 0.316 µM",9.49%
same,"viability, T/C","second compound 0.0316 µM, first compound 1 µM",10.2%
same,"viability, T/C",[5],33.4%
same,"viability, T/C",[6],15.7%
same,"viability, T/C",[7],10.9%
same,"viability, T/C",[8],9.64%
same,"viability, T/C","second compound 0.1 µM, first compound 0.316 µM",10.2%
same,"viability, T/C","second compound 0.1 µM, first compound 1 µM",9.26%
same,"viability, T/C",[9],30.1%
same,"viability, T/C",[10],12%
same,"viability, T/C",[11],10.7%
same,"viability, T/C",[12],10.1%
same,"viability, T/C","second compound 0.316 µM, first compound 0.316 µM",9.4%
same,"viability, T/C","second compound 0.316 µM, first compound 1 µM",8.53%
same,"viability, T/C",[13],30.9%
same,"viability, T/C",[14],11.5%
same,"viability, T/C",[15],9.4%
same,"viability, T/C",[16],9.54%
same,"viability, T/C","second compound 1 µM, first compound 0.316 µM",9.34%
same,"viability, T/C","second compound 1 µM, first compound 1 µM",9.69%
same,"viability, T/C",[17],34.2%
same,"viability, T/C",[18],11.5%
same,"viability, T/C",[19],9.08%
same,"viability, T/C",[20],9.36%
same,"viability, T/C","second compound 3.16 µM, first compound 0.316 µM",9.81%
same,"viability, T/C","second compound 3.16 µM, first compound 1 µM",9.01%
same,"viability, T/C",[21],17.9%
same,"viability, T/C",[22],9.92%
same,"viability, T/C",[23],8.74%
same,"viability, T/C",[24],8.3%
same,"viability, T/C","second compound 10 µM, first compound 0.316 µM",9.78%
same,"viability, T/C","second compound 10 µM, first compound 1 µM",9.02%
Cn1ncnc1[C@H]1c2n[nH]c(=O)c3cc(F)cc(c23)N[C@@H]1c1ccc(F)cc1 + COC1C(OC(N)=O)C(O)C(Oc2ccc3c(O)c(NC(=O)c4ccc(O)c(CC=C(C)C)c4)c(=O)oc3c2C)OC1(C)C,IC50,second compound 0.0316 µM,> 100 nM
same,IC50,second compound 0.1 µM,> 100 nM
same,IC50,second compound 0.316 µM,> 100 nM
same,IC50,second compound 1 µM,> 100 nM
same,IC50,second compound 3.16 µM,> 100 nM
same,IC50,second compound 10 µM,> 100 nM
same,"viability, T/C",[25],96.7%
same,"viability, T/C",[26],93%
same,"viability, T/C",[1],114%
same,"viability, T/C",[2],112%
same,"viability, T/C",[3],119%
same,"viability, T/C",[4],105%
same,"viability, T/C",[27],103%
same,"viability, T/C",[28],110%
same,"viability, T/C",[5],103%
same,"viability, T/C",[6],106%
same,"viability, T/C",[7],116%
same,"viability, T/C",[8],108%
same,"viability, T/C",[29],101%
same,"viability, T/C",[30],111%
same,"viability, T/C",[9],111%
same,"viability, T/C",[10],105%
same,"viability, T/C",[11],114%
same,"viability, T/C",[12],108%
same,"viability, T/C",[31],84.4%
same,"viability, T/C",[32],110%
same,"viability, T/C",[13],108%
same,"viability, T/C",[14],98.3%
same,"viability, T/C",[15],118%
same,"viability, T/C",[16],102%
same,"viability, T/C",[33],92.4%
same,"viability, T/C",[34],106%
same,"viability, T/C",[17],107%
same,"viability, T/C",[18],117%
same,"viability, T/C",[19],128%
same,"viability, T/C",[20],100%
same,"viability, T/C",[35],96.2%
same,"viability, T/C",[36],106%
same,"viability, T/C",[21],110%
same,"viability, T/C",[22],101%
same,"viability, T/C",[23],109%
same,"viability, T/C",[24],104%
CC[C@@]1(O)C(=O)OCc2c1cc1n(c2=O)Cc2cc3c(CN(C)C)c(O)ccc3nc2-1 + Cc1cccc(N(C)C(=O)C2C(O)CCN2c2nc(C)cc(C(F)(F)F)c2C#N)c1,IC50,second compound 0.0316 µM,93.3 nM
same,IC50,second compound 0.1 µM,98.4 nM
same,IC50,second compound 0.316 µM,93.6 nM
same,IC50,second compound 1 µM,86 nM
same,IC50,second compound 3.16 µM,84.6 nM
same,IC50,second compound 10 µM,61.6 nM
same,"viability, T/C",[25],112%
same,"viability, T/C",[26],83.4%
same,"viability, T/C",[1],90.6%
same,"viability, T/C",[2],104%
same,"viability, T/C",[3],67%
same,"viability, T/C",[4],48.9%
same,"viability, T/C",[27],102%
same,"viability, T/C",[28],96.7%
same,"viability, T/C",[5],96%
same,"viability, T/C",[6],103%
same,"viability, T/C",[7],74.8%
same,"viability, T/C",[8],49.6%
same,"viability, T/C",[29],83.1%
same,"viability, T/C",[30],106%
same,"viability, T/C",[9],99.4%
same,"viability, T/C",[10],118%
same,"viability, T/C",[11],71.7%
same,"viability, T/C",[12],48.7%
same,"viability, T/C",[31],105%
same,"viability, T/C",[32],96.9%
same,"viability, T/C",[13],96.7%
same,"viability, T/C",[14],114%
same,"viability, T/C",[15],74%
same,"viability, T/C",[16],46.4%
same,"viability, T/C",[33],102%
same,"viability, T/C",[34],100%
same,"viability, T/C",[17],96.2%
same,"viability, T/C",[18],115%
same,"viability, T/C",[19],73.9%
same,"viability, T/C",[20],45.9%
same,"viability, T/C",[35],115%
same,"viability, T/C",[36],96.2%
same,"viability, T/C",[21],104%
same,"viability, T/C",[22],87.5%
same,"viability, T/C",[23],59.8%
same,"viability, T/C",[24],42.6%
